*1 amine or outer side, *2 acyl side, *3 side chain or, on linkers, in order; H or OH if unused. Where a SMILES comes first, the peptide text is derived from it. [ ]: non-standard residue; d: D form. The star is where a group is joined. C22 diacid = O=C(O)CCCCCCCCCCCCCCCCCCCCC(=O)*; C20 diacid = O=C(O)CCCCCCCCCCCCCCCCCCC(=O)*; γGlu = O=C(O)[C@H](CCC(=O)[*:2])N[*:1]; βAsp = O=C(O)[C@H](CC(=O)[*:2])N[*:1]; AEEA = NCCOCCOCC(=O)O; Inp = O=C(O)C1CCNCC1
Molecular target: T1, human amylin receptors (Homo sapiens, UniProt O60896+P30988)
T1 sequence (P30988 25-474): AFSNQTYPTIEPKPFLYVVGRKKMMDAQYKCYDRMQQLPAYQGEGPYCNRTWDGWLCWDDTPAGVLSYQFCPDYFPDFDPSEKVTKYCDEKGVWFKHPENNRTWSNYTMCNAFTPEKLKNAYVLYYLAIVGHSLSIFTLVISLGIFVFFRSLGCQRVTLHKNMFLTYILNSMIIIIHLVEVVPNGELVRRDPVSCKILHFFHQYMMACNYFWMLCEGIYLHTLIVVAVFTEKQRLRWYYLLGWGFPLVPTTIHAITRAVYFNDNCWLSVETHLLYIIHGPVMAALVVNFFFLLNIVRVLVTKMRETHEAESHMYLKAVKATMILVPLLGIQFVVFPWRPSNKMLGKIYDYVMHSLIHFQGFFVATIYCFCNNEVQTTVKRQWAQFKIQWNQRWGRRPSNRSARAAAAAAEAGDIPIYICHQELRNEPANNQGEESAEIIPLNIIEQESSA
T1 sequence (O60896 24-148 partner): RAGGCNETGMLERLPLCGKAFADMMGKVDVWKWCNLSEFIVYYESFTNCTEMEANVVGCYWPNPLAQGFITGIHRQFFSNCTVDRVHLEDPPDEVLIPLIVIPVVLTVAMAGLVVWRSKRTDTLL
Assay: Luciferase assay of amylin (amylin receptor/CRE-luc cell line);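 also: agonist potency from luminescence of cAMP response element-driven luciferase, EC50 derived from a standard curve of signal versus compound concentration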
Type: cell-based
Conditions: stably transfected amylin receptor/CRE-luc CHO cells (CHO-K1/Gal5/AMY3), 24 hours incubation, luciferase readout
Source text: The objective of this assay is to test the activity or potency of calcitonin analogues or derivatives on human amylin receptors in vitro using a luciferase assay.
Using the standard protocol, CHO-K1/Gal5/AMY3 cells (purchased from GenScript, with the calcitonin receptor and the receptor activity modifying peptide (RAMP) constructed already) were transfected with a plasmid containing a luciferase expression cassette driven by multiple copies of cAMP response elements (CREs). The cells were cultured in an F12 medium containing 200 ug/mL Zeocin, 2 ug/mL puromycin, 100 ug/mL hygromycin, and 400 ug/mL G418 to afford a stably transfected amylin receptor/CRE-luc cell line.
To each well of a white 96-well plate was added 50 µL of the tested sample solution at a respective concentration.
The stably transfected amylin receptor/CRE-luc CHO cells were resuspended in the growth medium at a certain density, and 50 µL of the cell suspension was added at a density of about 20000 cells per well to the white 96-well plate containing the tested sample solution. After incubation of 24 hours at 37°C and 5% CO2, 100 µL of a Luciferase substrate was added to each well, incubated for 3 minutes, and finally was tested for luminescence on SpectraMax L (Molecular Devices) with the software SoftMax Pro 7.0.3 GxP. A standard curve was plotted using the fluorescent intensities for calculation of EC50.

SMILES	EC50
CC(C)C[C@H](NC(=O)[C@H](CCCNC(=N)N)NC(=O)CNC(=O)[C@H](CC(C)C)NC(=O)[C@@H](NC(=O)[C@H](C)NC(=O)[C@@H](NC(=O)[C@H](CO)NC(=O)[C@H](CC(C)C)NC(=O)[C@H](CCC(N)=O)NC(=O)[C@H](CO)NC(=O)[C@H](C)NC(=O)COCCOCCNC(=O)COCCOCCNC(=O)[C@H](CCC(=O)O)NC(=O)CCCCCCCCCCCCCCCCCCC(=O)O)[C@@H](C)O)C(C)C)C(=O)N[C@@H](CO)C(=O)N[C@@H](CCC(=O)O)C(=O)N[C@@H](CCC(=O)O)C(=O)N[C@@H](CC(C)C)C(=O)N[C@@H](Cc1c[nH]cn1)C(=O)N[C@@H](CCCNC(=N)N)C(=O)N[C@@H](CC(C)C)C(=O)N[C@@H](CCC(N)=O)C(=O)N[C@@H](CC(=O)O)C(=O)N[C@@H](Cc1ccc(O)cc1)C(=O)N1CCC[C@H]1C(=O)N[C@@H](CCCNC(=N)N)C(=O)N[C@H](C(=O)N[C@@H](CC(=O)O)C(=O)N[C@H](C(=O)NCC(=O)N[C@@H](CO)C(=O)NCC(=O)N[C@@H](CO)C(=O)N1CCC[C@H]1C(N)=O)C(C)C)[C@@H](C)O [M58] ({C20 diacid}-E[AEEA][AEEA]ASQLSTAVLGRLSEELHRLQDYPRTDVGSGSP-NH2)	0.017 nM
CC(C)C[C@H](NC(=O)[C@H](CCCNC(=N)N)NC(=O)CNC(=O)[C@H](CC(C)C)NC(=O)[C@@H](NC(=O)[C@H](C)NC(=O)[C@@H](NC(=O)[C@H](CO)NC(=O)[C@H](CC(C)C)NC(=O)[C@H](CCC(N)=O)NC(=O)[C@H](CO)NC(=O)[C@H](C)NC(=O)COCCOCCNC(=O)COCCOCCNC(=O)C[C@H](NC(=O)CCCCCCCCCCCCCCCCCCC(=O)O)C(=O)O)[C@@H](C)O)C(C)C)C(=O)N[C@@H](CO)C(=O)N[C@@H](CCC(=O)O)C(=O)N[C@@H](CCC(=O)O)C(=O)N[C@@H](CC(C)C)C(=O)N[C@@H](Cc1c[nH]cn1)C(=O)N[C@@H](CCCNC(=N)N)C(=O)N[C@@H](CC(C)C)C(=O)N[C@@H](CCC(N)=O)C(=O)N[C@@H](CC(=O)O)C(=O)N[C@@H](Cc1ccc(O)cc1)C(=O)N1CCC[C@H]1C(=O)N[C@@H](CCCNC(=N)N)C(=O)N[C@H](C(=O)N[C@@H](CC(=O)O)C(=O)N[C@H](C(=O)NCC(=O)N[C@@H](CO)C(=O)NCC(=O)N[C@@H](CO)C(=O)N1CCC[C@H]1C(N)=O)C(C)C)[C@@H](C)O [M59] ({C20 diacid-βAsp-AEEA-AEEA}-ASQLSTAVLGRLSEELHRLQDYPRTDVGSGSP-NH2)	0.017 nM
CC(C)C[C@H](NC(=O)[C@H](CCCNC(=N)N)NC(=O)CNC(=O)[C@H](CC(C)C)NC(=O)[C@@H](NC(=O)[C@H](C)NC(=O)[C@@H](NC(=O)[C@H](CO)NC(=O)[C@H](CC(C)C)NC(=O)[C@H](CCC(N)=O)NC(=O)[C@H](CO)NC(=O)[C@H](C)NC(=O)COCCOCCNC(=O)COCCOCCNC(=O)COCCOCCNC(=O)COCCOCCNC(=O)CC[C@H](NC(=O)CCCCCCCCCCCCCCCCCCC(=O)O)C(=O)O)[C@@H](C)O)C(C)C)C(=O)N[C@@H](CO)C(=O)N[C@@H](CCC(=O)O)C(=O)N[C@@H](CCC(=O)O)C(=O)N[C@@H](CC(C)C)C(=O)N[C@@H](Cc1c[nH]cn1)C(=O)N[C@@H](CCCNC(=N)N)C(=O)N[C@@H](CC(C)C)C(=O)N[C@@H](CCC(N)=O)C(=O)N[C@@H](CC(=O)O)C(=O)N[C@@H](Cc1ccc(O)cc1)C(=O)N1CCC[C@H]1C(=O)N[C@@H](CCCNC(=N)N)C(=O)N[C@H](C(=O)N[C@@H](CC(=O)O)C(=O)N[C@H](C(=O)NCC(=O)N[C@@H](CO)C(=O)NCC(=O)N[C@@H](CO)C(=O)N1CCC[C@H]1C(N)=O)C(C)C)[C@@H](C)O [M63] ({C20 diacid-γGlu-AEEA-AEEA-AEEA-AEEA}-ASQLSTAVLGRLSEELHRLQDYPRTDVGSGSP-NH2)	0.037 nM
CC(C)C[C@H](NC(=O)[C@H](CCCNC(=N)N)NC(=O)CNC(=O)[C@H](CC(C)C)NC(=O)[C@@H](NC(=O)[C@H](C)NC(=O)[C@@H](NC(=O)[C@H](CO)NC(=O)[C@H](CC(C)C)NC(=O)[C@H](CCC(N)=O)NC(=O)[C@H](CO)NC(=O)[C@H](C)NC(=O)CC[C@H](NC(=O)CCCCCCCCCCCCCCCCCCCCC(=O)O)C(=O)O)[C@@H](C)O)C(C)C)C(=O)N[C@@H](CO)C(=O)N[C@@H](CCC(=O)O)C(=O)N[C@@H](CCC(=O)O)C(=O)N[C@@H](CC(C)C)C(=O)N[C@@H](Cc1c[nH]cn1)C(=O)N[C@@H](CCCNC(=N)N)C(=O)N[C@@H](CC(C)C)C(=O)N[C@@H](CCC(N)=O)C(=O)N[C@@H](CC(=O)O)C(=O)N[C@@H](Cc1ccc(O)cc1)C(=O)N1CCC[C@H]1C(=O)N[C@@H](CCCNC(=N)N)C(=O)N[C@H](C(=O)N[C@@H](CC(=O)O)C(=O)N[C@H](C(=O)NCC(=O)N[C@@H](CO)C(=O)NCC(=O)N[C@@H](CO)C(=O)N1CCC[C@H]1C(N)=O)C(C)C)[C@@H](C)O [M65] ({C22 diacid-γGlu}-ASQLSTAVLGRLSEELHRLQDYPRTDVGSGSP-NH2)	0.017 nM
CC(C)C[C@H](NC(=O)[C@H](CCCNC(=N)N)NC(=O)CNC(=O)[C@H](CC(C)C)NC(=O)[C@@H](NC(=O)[C@H](C)NC(=O)[C@@H](NC(=O)[C@H](CO)NC(=O)[C@H](CC(C)C)NC(=O)[C@H](CCC(N)=O)NC(=O)[C@H](CO)NC(=O)[C@H](C)NC(=O)COCCOCCNC(=O)COCCOCCNC(=O)CC[C@H](NC(=O)CCCCCCCCCCCCCCCCCCCCC(=O)O)C(=O)O)[C@@H](C)O)C(C)C)C(=O)N[C@@H](CO)C(=O)N[C@@H](CCC(=O)O)C(=O)N[C@@H](CCC(=O)O)C(=O)N[C@@H](CC(C)C)C(=O)N[C@@H](Cc1c[nH]cn1)C(=O)N[C@@H](CCCNC(=N)N)C(=O)N[C@@H](CC(C)C)C(=O)N[C@@H](CCC(N)=O)C(=O)N[C@@H](CC(=O)O)C(=O)N[C@@H](Cc1ccc(O)cc1)C(=O)N1CCC[C@H]1C(=O)N[C@@H](CCCNC(=N)N)C(=O)N[C@H](C(=O)N[C@@H](CC(=O)O)C(=O)N[C@H](C(=O)NCC(=O)N[C@@H](CO)C(=O)NCC(=O)N[C@@H](CO)C(=O)N1CCC[C@H]1C(N)=O)C(C)C)[C@@H](C)O [M66] ({C22 diacid-γGlu-AEEA-AEEA}-ASQLSTAVLGRLSEELHRLQDYPRTDVGSGSP-NH2)	0.017 nM

Second part, the compound after the results:

EC50	SMILES
0.017 nM	CC(C)C[C@H](NC(=O)[C@H](CCCNC(=N)N)NC(=O)CNC(=O)[C@H](CC(C)C)NC(=O)[C@@H](NC(=O)[C@H](C)NC(=O)[C@@H](NC(=O)[C@H](CO)NC(=O)[C@H](CC(C)C)NC(=O)[C@H](CCC(N)=O)NC(=O)[C@H](CO)NC(=O)[C@H](C)NC(=O)COCCOCCNC(=O)COCCOCCNC(=O)CC[C@H](NC(=O)CCCCCCCCCCCCCCCCCCC(=O)O)C(=O)O)[C@@H](C)O)C(C)C)C(=O)N[C@@H](CO)C(=O)N[C@@H](CCC(=O)O)C(=O)N[C@@H](CCC(=O)O)C(=O)N[C@@H](CC(C)C)C(=O)N[C@@H](Cc1c[nH]cn1)C(=O)N[C@@H](CCCNC(=N)N)C(=O)N[C@@H](CC(C)C)C(=O)N[C@@H](CCC(N)=O)C(=O)N[C@@H](CC(=O)O)C(=O)N[C@@H](Cc1ccc(O)cc1)C(=O)N1CCC[C@H]1C(=O)N[C@@H](CCCNC(=N)N)C(=O)N[C@H](C(=O)N[C@@H](CC(=O)O)C(=O)N[C@H](C(=O)NCC(=O)N[C@@H](CO)C(=O)NCC(=O)N[C@@H](CO)C(=O)N1CCC[C@H]1C(N)=O)C(C)C)[C@@H](C)O [M57] ({C20 diacid-γGlu-AEEA-AEEA}-ASQLSTAVLGRLSEELHRLQDYPRTDVGSGSP-NH2)
0.016 nM	CC(C)C[C@H](NC(=O)[C@H](CCCNC(=N)N)NC(=O)CNC(=O)[C@H](CC(C)C)NC(=O)[C@@H](NC(=O)[C@H](C)NC(=O)[C@@H](NC(=O)[C@H](CO)NC(=O)[C@H](CC(C)C)NC(=O)[C@H](CCC(N)=O)NC(=O)[C@H](CO)NC(=O)[C@H](C)NC(=O)COCCOCCNC(=O)COCCOCCNC(=O)[C@H](CC(=O)O)NC(=O)CCCCCCCCCCCCCCCCCCC(=O)O)[C@@H](C)O)C(C)C)C(=O)N[C@@H](CO)C(=O)N[C@@H](CCC(=O)O)C(=O)N[C@@H](CCC(=O)O)C(=O)N[C@@H](CC(C)C)C(=O)N[C@@H](Cc1c[nH]cn1)C(=O)N[C@@H](CCCNC(=N)N)C(=O)N[C@@H](CC(C)C)C(=O)N[C@@H](CCC(N)=O)C(=O)N[C@@H](CC(=O)O)C(=O)N[C@@H](Cc1ccc(O)cc1)C(=O)N1CCC[C@H]1C(=O)N[C@@H](CCCNC(=N)N)C(=O)N[C@H](C(=O)N[C@@H](CC(=O)O)C(=O)N[C@H](C(=O)NCC(=O)N[C@@H](CO)C(=O)NCC(=O)N[C@@H](CO)C(=O)N1CCC[C@H]1C(N)=O)C(C)C)[C@@H](C)O [M60] ({C20 diacid}-D[AEEA][AEEA]ASQLSTAVLGRLSEELHRLQDYPRTDVGSGSP-NH2)
0.016 nM	CC(C)C[C@H](NC(=O)[C@H](CCCNC(=N)N)NC(=O)CNC(=O)[C@H](CC(C)C)NC(=O)[C@@H](NC(=O)[C@H](C)NC(=O)[C@@H](NC(=O)[C@H](CO)NC(=O)[C@H](CC(C)C)NC(=O)[C@H](CCC(N)=O)NC(=O)[C@H](CO)NC(=O)[C@H](C)NC(=O)COCCOCCNC(=O)COCCOCCNC(=O)C1CCN(C(=O)CCCCCCCCCCCCCCCCCCC(=O)O)CC1)[C@@H](C)O)C(C)C)C(=O)N[C@@H](CO)C(=O)N[C@@H](CCC(=O)O)C(=O)N[C@@H](CCC(=O)O)C(=O)N[C@@H](CC(C)C)C(=O)N[C@@H](Cc1c[nH]cn1)C(=O)N[C@@H](CCCNC(=N)N)C(=O)N[C@@H](CC(C)C)C(=O)N[C@@H](CCC(N)=O)C(=O)N[C@@H](CC(=O)O)C(=O)N[C@@H](Cc1ccc(O)cc1)C(=O)N1CCC[C@H]1C(=O)N[C@@H](CCCNC(=N)N)C(=O)N[C@H](C(=O)N[C@@H](CC(=O)O)C(=O)N[C@H](C(=O)NCC(=O)N[C@@H](CO)C(=O)NCC(=O)N[C@@H](CO)C(=O)N1CCC[C@H]1C(N)=O)C(C)C)[C@@H](C)O [M62] ({C20 diacid-Inp-AEEA-AEEA}-ASQLSTAVLGRLSEELHRLQDYPRTDVGSGSP-NH2)

Source: patent EP4692114A1, “CALCITONIN ANALOGUE, AND DERIVATIVE THEREOF AND USE THEREOF” (Hangzhou Sciwind Biosciences Co., Ltd., priority 2023, dated 2024)
